According to US20240287172A1, “PROTEIN BINDERS TO IRHOM2 EPITOPES” (SCIRHOM GMBH, priority 2019, published 2024):

System: PMA-induced release of endogenous HB-EGF from PBMCs from patients suffering from rheumatoid arthritis
Assay: ELISA-based HB-EGF release assay, PMA-induced, PBMCs from RA-patients
Type: cell-based
Settings: PBMC; PMA 25 ng/ml, 6 hours; chimeric antibodies (CHO) and human IgG at 1 μg/ml; Batimastat at 10 μM
Method: In brief, on day 1, Nunc black MaxiSorp® 96-well plates (Thermo Fisher Scientific, USA) were coated overnight with 100 μl per well of rat anti-human HB-EGF capture antibody (provided as part of the DuoSet ELISA kit) at 2 μg/ml TBS at 4° C. On day 2, the capture antibody solution was removed and MaxiSorp® plates were blocked with 300 μl per well of TBS, 1% BSA at room temperature for 3 hours. Meanwhile, 80,000 PBMC from patients suffering from rheumatoid arthritis (STEMCELL Technologies, Canada) cells in 80 μl of normal growth medium were seeded in each well of Greiner CELLSTAR V-bottom 96-well plates (Thermo Fisher Scientific, USA) and pre-incubated with 20 μl per well of standard growth medium supplemented with Batimastat (BB94, Abcam, UK) at 50 μM as positive control (for a final concentration of 10 μM in the resulting 100 μl sample volume), human IgG antibody (Thermo Fisher Scientific, USA) at 5 μg/ml as isotype control (for a final concentration of 1 μg/ml in the resulting 100 μl sample volume) or antibodies of the invention at 5 μg/ml (for a final concentration of 1 μg/ml in the resulting 100 μl sample volume) at 37° C., 5% CO2 for 30 minutes. […] Using an infinite M1000 (Tecan Group, Switzerland) microplate reader, the fluorescence of each well was collected at an excitation wavelength of 435 nm and an emission wavelength of 555 nm.

`CNC(=O)[C@H](Cc1ccccc1)NC(=O)[C@H](CC(C)C)[C@H](CSc1cccs1)C(=O)NO` [Batimastat] gave an inhibition at 10 µM of 102%.
